Experiment [1] has as its system EAAT3. To be noted: cited from earlier work.
The target in experiment [2] is human EAAT1 (hEAAT1) (Homo sapiens, UniProt P43003). The experiment can be described thus: [3H]-D-Asp uptake assay, hEAAT1-HEK293 cells. The format is cell-based.
For experiment [3], the target named is T1, human EAAT3 (hEAAT3) (Homo sapiens, UniProt P43005).
T1 sequence (P43005 1-524): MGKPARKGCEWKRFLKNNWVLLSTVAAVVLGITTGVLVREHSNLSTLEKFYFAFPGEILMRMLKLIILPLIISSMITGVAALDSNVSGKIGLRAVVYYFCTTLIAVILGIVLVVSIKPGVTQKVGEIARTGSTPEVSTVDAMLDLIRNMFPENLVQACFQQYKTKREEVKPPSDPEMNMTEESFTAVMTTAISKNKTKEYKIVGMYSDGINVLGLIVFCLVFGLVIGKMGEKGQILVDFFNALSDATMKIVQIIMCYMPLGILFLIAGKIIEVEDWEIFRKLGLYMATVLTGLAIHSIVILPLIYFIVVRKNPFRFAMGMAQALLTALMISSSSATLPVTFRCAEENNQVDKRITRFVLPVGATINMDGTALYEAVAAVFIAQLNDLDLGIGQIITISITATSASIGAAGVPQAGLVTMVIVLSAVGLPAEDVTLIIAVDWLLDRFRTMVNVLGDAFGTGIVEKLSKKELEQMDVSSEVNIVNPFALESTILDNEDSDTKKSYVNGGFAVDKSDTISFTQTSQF
Put plainly: [3H]-D-Asp uptake assay, hEAAT3-HEK293 cells. To be noted: hEAAT3 pIC50 ± S.E.M. The class given is cell-based.

The target in experiment [4] is T2, rat EAAT4 (rEAAT4) (Rattus norvegicus, UniProt O35921).
T2 sequence (O35921 1-561): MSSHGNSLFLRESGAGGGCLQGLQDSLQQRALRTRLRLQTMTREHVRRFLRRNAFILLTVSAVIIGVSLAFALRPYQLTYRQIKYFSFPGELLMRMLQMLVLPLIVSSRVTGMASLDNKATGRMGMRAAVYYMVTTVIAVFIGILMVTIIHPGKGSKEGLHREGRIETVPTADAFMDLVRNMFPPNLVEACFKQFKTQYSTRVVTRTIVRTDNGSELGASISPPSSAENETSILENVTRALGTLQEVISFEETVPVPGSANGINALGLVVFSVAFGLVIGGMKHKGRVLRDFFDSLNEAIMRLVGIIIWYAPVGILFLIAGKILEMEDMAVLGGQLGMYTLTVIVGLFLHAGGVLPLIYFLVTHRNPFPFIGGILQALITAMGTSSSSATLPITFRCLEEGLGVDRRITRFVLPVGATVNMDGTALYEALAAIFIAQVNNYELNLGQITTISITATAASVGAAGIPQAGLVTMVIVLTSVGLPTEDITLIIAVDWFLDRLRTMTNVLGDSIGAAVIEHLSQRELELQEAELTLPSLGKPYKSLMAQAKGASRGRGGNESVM
The experiment can be described thus: [3H]-D-Asp uptake assay, rEAAT4-tsA201 cells. The class given is cell-based.

The target in experiment [5] is human EAAT2 (hEAAT2) (Homo sapiens, UniProt P43004). The experiment can be described thus: [3H]-D-Asp uptake assay, hEAAT2-HEK293 cells. The class given is cell-based.
Chain of human EAAT2 (hEAAT2) (P43004 whole entry, the tested form may be a part): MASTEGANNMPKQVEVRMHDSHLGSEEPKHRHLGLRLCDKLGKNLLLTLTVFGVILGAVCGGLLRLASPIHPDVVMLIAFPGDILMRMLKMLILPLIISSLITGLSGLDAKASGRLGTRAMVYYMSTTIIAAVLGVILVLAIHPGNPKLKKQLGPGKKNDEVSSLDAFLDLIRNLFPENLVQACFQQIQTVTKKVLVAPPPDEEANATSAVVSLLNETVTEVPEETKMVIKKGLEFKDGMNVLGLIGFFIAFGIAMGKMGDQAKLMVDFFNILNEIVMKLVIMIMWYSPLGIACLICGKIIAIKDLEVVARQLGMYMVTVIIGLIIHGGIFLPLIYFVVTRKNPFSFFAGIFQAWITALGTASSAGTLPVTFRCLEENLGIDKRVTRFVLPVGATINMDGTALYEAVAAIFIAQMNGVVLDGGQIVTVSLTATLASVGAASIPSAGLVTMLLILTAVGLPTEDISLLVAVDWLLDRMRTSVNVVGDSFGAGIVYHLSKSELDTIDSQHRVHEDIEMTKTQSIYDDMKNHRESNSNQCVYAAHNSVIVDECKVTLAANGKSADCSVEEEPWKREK

Chain of human EAAT1 (hEAAT1) (P43003 whole entry, the tested form may be a part): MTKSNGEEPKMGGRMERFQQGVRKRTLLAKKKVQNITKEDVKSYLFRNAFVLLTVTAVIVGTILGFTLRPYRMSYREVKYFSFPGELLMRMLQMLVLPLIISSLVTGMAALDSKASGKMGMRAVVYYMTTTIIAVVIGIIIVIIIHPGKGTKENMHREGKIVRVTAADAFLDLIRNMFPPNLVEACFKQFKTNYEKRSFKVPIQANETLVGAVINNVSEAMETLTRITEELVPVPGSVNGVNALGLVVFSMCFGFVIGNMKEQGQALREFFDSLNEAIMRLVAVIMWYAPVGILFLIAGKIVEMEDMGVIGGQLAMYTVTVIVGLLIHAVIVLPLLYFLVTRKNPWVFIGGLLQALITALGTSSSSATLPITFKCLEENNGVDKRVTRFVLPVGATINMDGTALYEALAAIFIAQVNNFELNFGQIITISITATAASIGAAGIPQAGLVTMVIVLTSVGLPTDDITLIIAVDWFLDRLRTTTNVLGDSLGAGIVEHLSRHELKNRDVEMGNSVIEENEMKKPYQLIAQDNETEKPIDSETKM

In the case of `N[C@H](C(=O)O)[C@H](Cc1ccccc1)C(=O)O` [compound 4, L-threo-3-benzylaspartate], the “preference as an inhibitor for EAAT3 over EAAT1 and EAAT2” value in experiment [1] is recorded as 10 fold.

Regarding `C#CCO[C@H](C(=O)O)[C@@H](N)C(=O)O` (racemic) [DL-erythro-19c, (DL-erythro)-3-(Prop-2-yn-1-yloxy)aspartate], the IC50 (usually the concentration that inhibits the measured activity by half) was 99 µM in experiment [2] (hEAAT1 IC50, [3H]-D-Asp uptake, HEK293 cells); 28.2 µM in experiment [3]; roughly 100 µM in experiment [4]; 82 µM in experiment [5] (hEAAT2 IC50, [3H]-D-Asp uptake, HEK293 cells).

For `N[C@H](C(=O)O)[C@H](OCc1cccc(NC(=O)Cc2ccc(C(F)(F)F)cc2)c1)C(=O)O` [3d], the “fold increased IC50 at hEAAT1 relative to L-TFB-TBOA” value in experiment [2] (versus L-TFB-TBOA (3a)) is listed as 5–10 fold. In experiment [4] (versus L-TFB-TBOA (3a)), the “fold increased IC50 at rEAAT4 relative to L-TFB-TBOA” value is recorded as 5–10 fold. The “fold increased IC50 at hEAAT2 relative to L-TFB-TBOA” value in experiment [5] (versus L-TFB-TBOA (3a)) is 5–10 fold.

In experiment [4], `N[C@H](C(=O)O)[C@H](OCc1ccsc1)C(=O)O` (racemic) [DL-threo-19b, (DL-threo)-3-(Thiophen-3-ylmethoxy)aspartate] displayed a 50% inhibitory concentration (IC50) of 4.27 µM.

Take `N[C@H](C(=O)O)[C@H](OCC1CC1)C(=O)O` (racemic) [DL-threo-19a, (DL-threo)-3-(Cyclopropylmethoxy)aspartate]: the IC50 in experiment [3] came out at 3.72 µM; in experiment [4] it was 15.8 µM.
